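Where inhibition never reached the appropriate level, the endpoint shown equals the highest concentration tested. Otherwise, values were interpolated linearly from a five-concentration, 48-hour dose response in 96-well plates. TGI denotes the concentration required for complete inhibition of growth.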
How the values were obtained:
Test in all cases: NCI-60 cell line screen, 48 h
T-47D breast = test system: T-47D breast
SK-OV-3 ovarian = test system: SK-OV-3 ovarian
MOLT-4 leukemia = test system: MOLT-4 leukemia
CAKI-1 renal = test system: CAKI-1 renal
OVCAR-8 ovarian = test system: OVCAR-8 ovarian
HS 578T breast = test system: HS 578T breast
MCF7 breast = test system: MCF7 breast
NCI-H23 lung = test system: NCI-H23 lung
A549 NSCLC = test system: A549 NSCLC
SNB-75 CNS = test system: SNB-75 CNS
K-562 leukemia = test system: K-562 leukemia
MDA-MB-231 breast = test system: MDA-MB-231 breast
HOP-92 NSCLC = test system: HOP-92 NSCLC
SN12C renal = test system: SN12C renal
SF-295 CNS = test system: SF-295 CNS
NCI/ADR-RES ovarian = test system: NCI/ADR-RES ovarian
786-0 renal = test system: 786-0 renal
OVCAR-5 ovarian = test system: OVCAR-5 ovarian
HT29 colon = test system: HT29 colon
ACHN renal = test system: ACHN renal
SNB-19 CNS = test system: SNB-19 CNS
LOX IMVI melanoma = test system: LOX IMVI melanoma
HCC-2998 colon = test system: HCC-2998 colon
COLO 205 colon = test system: COLO 205 colon
TK-10 renal = test system: TK-10 renal
M14 melanoma = test system: M14 melanoma
IGROV1 ovarian = test system: IGROV1 ovarian
DU-145 prostate = test system: DU-145 prostate
HOP-62 NSCLC = test system: HOP-62 NSCLC
UO-31 renal = test system: UO-31 renal
MDA-MB-435 = test system: MDA-MB-435
CCRF-CEM leukemia = test system: CCRF-CEM leukemia
KM12 colon = test system: KM12 colon
NCI-H522 lung = test system: NCI-H522 lung
A498 renal = test system: A498 renal
HL-60(TB) leukemia = test system: HL-60(TB) leukemia
PC-3 prostate = test system: PC-3 prostate
NCI-H226 lung = test system: NCI-H226 lung
EKVX NSCLC = test system: EKVX NSCLC
U251 CNS = test system: U251 CNS
SK-MEL-2 melanoma = test system: SK-MEL-2 melanoma
SK-MEL-5 melanoma = test system: SK-MEL-5 melanoma
SF-268 CNS = test system: SF-268 CNS
HCT-15 colon = test system: HCT-15 colon
SK-MEL-28 melanoma = test system: SK-MEL-28 melanoma
OVCAR-4 ovarian = test system: OVCAR-4 ovarian
MDA-N = test system: MDA-N
SR leukemia = test system: SR leukemia
RPMI-8226 leukemia = test system: RPMI-8226 leukemia
BT-549 breast = test system: BT-549 breast
UACC-257 melanoma = test system: UACC-257 melanoma
UACC-62 melanoma = test system: UACC-62 melanoma
HCT-116 colon = test system: HCT-116 colon
MALME-3M melanoma = test system: MALME-3M melanoma
NCI-H460 lung = test system: NCI-H460 lung
SW-620 colon = test system: SW-620 colon
SF-539 CNS = test system: SF-539 CNS
RXF 393 renal = test system: RXF 393 renal
OVCAR-3 ovarian = test system: OVCAR-3 ovarian

Measured: TGI

COc1cccc(N2C(=O)/C(=C\c3ccccc3)SC2c2cc(OC)c(OC)c(OC)c2)c1 (centres undefined)
57.3 µM: SNB-75 CNS
40.5 µM: MDA-N
67.7 µM: A498 renal
94.3 µM: T-47D breast
not listed: MALME-3M melanoma | NCI-H460 lung | SW-620 colon | SF-539 CNS | RXF 393 renal | OVCAR-3 ovarian
> 100 µM: all other assays above

O=C(O)c1cc(-c2ccncc2)nc2ccccc12
not listed: SNB-75 CNS | CCRF-CEM leukemia
> 100 µM: all other assays above

Cc1cc(Cc2cc(C)cc(C(C)(C)C)c2O)c(O)c(Cc2cc(C)cc(C(C)(C)C)c2O)c1
9.12 µM: PC-3 prostate
5.93 µM: HS 578T breast
9.09 µM: 786-0 renal
8.57 µM: MDA-MB-435
10.4 µM: UO-31 renal | OVCAR-3 ovarian
9.17 µM: COLO 205 colon
14 µM: IGROV1 ovarian
8.59 µM: TK-10 renal
5.44 µM: HCT-116 colon
4.28 µM: NCI-H522 lung
13.5 µM: CAKI-1 renal
5.3 µM: UACC-257 melanoma
6.54 µM: SF-539 CNS
10.9 µM: SK-OV-3 ovarian | LOX IMVI melanoma
7.94 µM: HOP-62 NSCLC
> 20.4 µM: RPMI-8226 leukemia
4.22 µM: NCI-H460 lung
> 28.6 µM: SR leukemia
4.53 µM: UACC-62 melanoma
13.7 µM: DU-145 prostate
11.5 µM: NCI-H226 lung
5.23 µM: HL-60(TB) leukemia
5.13 µM: MALME-3M melanoma
8.28 µM: SN12C renal
11.9 µM: MDA-N
7.78 µM: HT29 colon
8.21 µM: RXF 393 renal
12.6 µM: NCI/ADR-RES ovarian
4.25 µM: MDA-MB-231 breast
7.93 µM: MCF7 breast
6.33 µM: K-562 leukemia
15.7 µM: SNB-19 CNS
7.26 µM: M14 melanoma
10.1 µM: SF-295 CNS
9 µM: EKVX NSCLC
10.3 µM: U251 CNS
6.7 µM: SK-MEL-2 melanoma
5.83 µM: MOLT-4 leukemia
9.36 µM: HOP-92 NSCLC
14.2 µM: SNB-75 CNS | OVCAR-5 ovarian
10 µM: KM12 colon
16.7 µM: SW-620 colon | SK-MEL-28 melanoma
2.62 µM: SK-MEL-5 melanoma
11.7 µM: OVCAR-4 ovarian
7.2 µM: A498 renal
9.92 µM: SF-268 CNS
8.31 µM: CCRF-CEM leukemia
15.1 µM: OVCAR-8 ovarian
10.6 µM: BT-549 breast
5.34 µM: NCI-H23 lung
not listed: HCC-2998 colon
11.3 µM: all other assays above

CC(=O)OCC(=O)[C@@]12OC(C)(C)O[C@@H]1C[C@H]1[C@@H]3CC=C4C[C@@H](O)CC[C@]4(C)[C@H]3CC[C@@]12C
96.4 µM: BT-549 breast
63.4 µM: HS 578T breast
29.4 µM: SNB-75 CNS
61.4 µM: RXF 393 renal
74.7 µM: SF-539 CNS
not listed: HOP-92 NSCLC | HCC-2998 colon | NCI-H460 lung
> 100 µM: all other assays above

— PubChem BioAssay (NCI)
